The values below are quoted from earlier work in patent US20110280834A1, “METHODS AND COMPOSITIONS FOR CARDIAC TISSUE REGENERATION” (priority 2009, published 2011).

For the data set the following is noted: rat, in vivo, ip, 70 umol/kg.

The term half-life denotes the time needed for the level to fall by half in the phase considered. As to `O=c1[nH]c(=O)n([C@H]2C[C@H](O)[C@@H](CO)O2)cc1Br` [BrdU], the half-life was 2 h.
